Values of other authors in patent US20240108697A1, “ANTIMICROBIAL COMPOSITIONS” (Matoke Holdings Limited, priority 2020, published 2024).

What was measured:
[1] = at 20° C. and 1 atm
[2] = tested on: Human Fibroblast Cell Migration; settings: in the presence of 30 mM glucose

SMILES | solubility [1] | mobilisation of fibroblasts in a cell culture system [2]
O=C(CO)[C@@H](O)[C@H](O)[C@H](O)CO [Fructose] | about 375 g/100 g water | 
O=C[C@H](O)[C@@H](O)[C@H](O)[C@H](O)CO [Glucose] | 90 g/100 g water | poor mobilisations of fibroblasts
